Test results published in patent US20020115059A1, “Drug screening system” (priority 2000, published 2002).

Tested on: mouse ES cells
Experiment: In vitro hepatic differentiation of ES cells (EBs): marker mRNA expression by RT-PCR / real-time PCR
Format: cell-based
Settings: EBs on collagen coated dishes, factors of individual stages, Day 18
Procedure: Cell Culture—The ES cell lines R1 (129Sv strain), W9.5 (129Sv), and SEK1 null (established from W9.5) (Ganiatsas et al., (1998) Proc. Natl. Acad. Sci. USA 95, 6881-6) were maintained undifferentiated in gelatin-coated dishes in DMEM (GIBCO BRL, Grand Island, N.Y.) containing 15% fetal bovine serum (Atlanta biologicals, Norcross, Ga.), 2 mM L-glutamine, 100 units/ml penicilin, 100 μg/ml streptomycin, 25 mM Hepes (GIBCO BRL), 300 μM monothioglycerol (Sigma, St. Louis, Mo.), and 250 unit/ml recombinant mouse LIF (ESGRO, CHEMICON, Temecula, Calif.). To induce differentiation, ES cells were suspended in IMDM containing 2 mM L-glutamine, 100 units/ml penicillin, 100 μg/ml streptomycin (GIBCO BRL), 20% fetal bovine serum (Atlanta biologicals) and 300 μM monothioglycerol (Sigma). Cells were cultured for 2 days by the hanging-drop method (1×10^3 ES cells per 30 μl in each drop) (Metzger et al., (1994) J. Cell. Biol. 126, 701-11). EBs in hanging drops were transferred to suspension culture in 100-mm petri dishes and cultured for an additional 3 days. […]
For each gene, the DNA primers were originated from different exons to ensure that the PCR product represented the specific mRNA species and not genomic DNA. Relative quantitation of albumin gene was performed by ABIPRISM5700 sequence detection system and SYBR green PCR master mix (PE Biosystems, Foster City, Calif.). […]

hepatocyte growth factor [HGF]
G6P expression (FIG. 5a): critical
